Measured values: PMC12528448, “Resistance to CDK7 inhibitors directed by acquired mutation of a conserved residue in cancer cells” (The EMBO Journal, 2025)
Where “and” joins values, the source holds several entries; their conditions need not be identical. Equal values may be shown once.

Experiments:
Assay type in all cases: cell-based, human
[1] = tested on: 22Rv1-CDK7-D97N cells; test: Growth assay (SRB), 22Rv1 CDK7-D97N knock-in pool; conditions: for % Growth: 22Rv1 CDK7 D99N
Description: (§1) To determine the IC50 of drug treatments on growth, cells were seeded in 96-well culture plates. Two days after seeding, the cells were treated with increasing concentrations of drugs and incubated for 4 days. Cell number was determined using the SRB assay (Skehan et al, [1990]), and IC50 values were calculated using non-linear regression curve fitting in GraphPad Prism v10. For all other growth experiments, cells were seeded into 96-well plates, and appropriate drugs were added 2 days after seeding. Cells were then incubated in an IncuCyte Zoom live-cell imager, with cell confluency measured every 6 h. Cell doubling times were determined by non-linear curve fitting (exponential growth equation) in GraphPad Prism v10.
(§2) Alt-R^TM S.p. Cas9 nuclease V3, Alt-R CRISPR-Cas9 crRNA, TracrRNA and the donor templates were obtained from Integrated DNA Technologies. […] Cells were treated with 0.7 µM of Alt-R HDR Enhancer V2 to improve HRD efficiency. Sequences of the CRISPRs in the crRNA and the donor templates are shown in the Reagents and tools table. Donor templates were designed to include non-coding substitutions to aid genome DNA PCR for identifying knock-in events and to facilitate cloning; these substitutions are noted in the Reagents and tools table.

[2] = tested on: LNCaP cells; test: Growth assay (SRB), LNCaP
Description: as §1

[3] = tested on: 22Rv1 cells; test: Growth assay (SRB), 22Rv1
Description: as §1

[4] = tested on: MCF7-CDK7-D97N cells; test: Growth assay (SRB), MCF7 CDK7-D97N knock-in; conditions: for % Growth: MCF7 CDK7 D99N, biological reps
Description: as §1, §2

[5] = tested on: LNCaP-CDK7-D97N cells; test: Growth assay (SRB), LNCaP CDK7-D97N knock-in; conditions: for % Growth: LNCaP CDK7 D99N
Description: as §1, §2

[6] = tested on: MCF7 cells; test: Growth assay (SRB), MCF7; conditions: for % Growth: biological reps
Description: as §1

[7] = tested on: 22Rv1-SamR cells; test: Growth assay (SRB), Samuraciclib-resistant 22Rv1; conditions: for % Growth: 22Rv1 SamR, 4 days, biological reps
Description: as §1

What does the source list for `C=CC(=O)Nc1ccc(C(=O)Nc2[nH]nc3c2CN(C(=O)N[C@H](CN(C)C)c2ccccc2)C3(C)C)cc1` [YKL-5-124]?
Sensitivity in growth assays ([1]; 22Rv1-CDK7-D97N vs parental): remaining sensitive; % Growth ([1]; Log10 Conc. (nM) 0.09): 95.04% and 95.37%; % Growth ([1]; Log10 Conc. (nM) 0.69): 93.89% and 97.25%; % Growth ([1]; Log10 Conc. (nM) 1.29): 85.36% and 88.43%; % Growth ([1]; Log10 Conc. (nM) 1.89): 88.25% and 90.69%; % Growth ([1]; Log10 Conc. (nM) 2.49): 93.92% and 88.27%; % Growth ([1]; Log10 Conc. (nM) 3.10): 65.35% and 66.63%; % Growth ([1]; Log10 Conc. (nM) 3.70): 34.13% and 30.83%; % Growth ([1]; Log10 Conc. (nM) -0.52): 104.35% and 94.29%; % Growth ([1]; Log10 Conc. (nM) -1.12): 96.98% and 94.29%; % Growth ([2]; Log10 Conc. (nM) 0.09): 110.86% and 92.81%; % Growth ([2]; Log10 Conc. (nM) 0.69): 85.55% and 79.81%; % Growth ([2]; Log10 Conc. (nM) 3.70): -11.67% and -9.39%; % Growth ([2]; Log10 Conc. (nM) -0.52): 109.97% and 100.05%; % Growth ([2]; Log10 Conc. (nM) -1.12): 106.79% and 104.82%; % Growth ([3]; 22Rv1, Log10 Conc. (nM) 0.09): 59.88% and 63.28%; % Growth ([3]; 22Rv1, Log10 Conc. (nM) 0.69): 24.70% and 25.33%; % Growth ([3]; 22Rv1, Log10 Conc. (nM) 1.29): 14.01% and 10.35%; % Growth ([3]; 22Rv1, Log10 Conc. (nM) 1.89): 12.24% and 10.17%; % Growth ([3]; 22Rv1, Log10 Conc. (nM) 2.49): 11.07% and 8.36%; % Growth ([3]; 22Rv1, Log10 Conc. (nM) 3.10): 1.88% and 3.47%; % Growth ([3]; 22Rv1, Log10 Conc. (nM) 3.70): 0.13% and -0.45%; % Growth ([3]; 22Rv1, Log10 Conc. (nM) -0.52): 83.49% and 90.26%; % Growth ([3]; 22Rv1, Log10 Conc. (nM) -1.12): 94.90% and 93.56%; % Growth ([3]; 22Rv1, Log10 Conc. (nM) 0.09, 4 days, biological reps): 93.20% and 88.05%; % Growth ([3]; 22Rv1, Log10 Conc. (nM) 0.69, 4 days, biological reps): 85.45% and 77.80%; % Growth ([3]; 22Rv1, Log10 Conc. (nM) 1.29, 4 days, biological reps): 56.44% and 44.90%; % Growth ([3]; 22Rv1, Log10 Conc. (nM) 1.89, 4 days, biological reps): 5.80% and -0.07%; % Growth ([3]; 22Rv1, Log10 Conc. (nM) 2.49, 4 days, biological reps): -4.12% and -6.31%; % Growth ([3]; 22Rv1, Log10 Conc. (nM) 3.10, 4 days, biological reps): -6.49% and -7.67%; % Growth ([3]; 22Rv1, Log10 Conc. (nM) 3.70, 4 days, biological reps): -6.63% and -7.61%; % Growth ([3]; 22Rv1, Log10 Conc. (nM) -0.52, 4 days, biological reps): 98.36% and 93.94%; % Growth ([3]; 22Rv1, Log10 Conc. (nM) -1.12, 4 days, biological reps): 96.18% and 94.83%; Resistance (Fold) ([4]; MCF7-CDK7-D97N vs MCF7 WT): 1.45 fold; IC50 ([4]; MCF7-CDK7-D97N, 4 days, SRB): 8 nM; % Growth ([4]; Log10 Conc. (nM) 0.09, 4 days): 94.47% and 108.04% and 95.31% and 94.01%; % Growth ([4]; Log10 Conc. (nM) 0.69, 4 days): 69.10% and 46.95% and 78.88% and 82.06%; % Growth ([4]; Log10 Conc. (nM) -0.52, 4 days): 98.82% and 155.20% and 98.59% and 96.08%; % Growth ([4]; Log10 Conc. (nM) -1.12, 4 days): 96.88% and 112.86% and 97.89% and 98.06%; % Growth ([5]; Log10 Conc. (nM) 0.09): 95.98% and 86.14%; % Growth ([5]; Log10 Conc. (nM) 0.69): 91.96% and 46.53%; % Growth ([5]; Log10 Conc. (nM) -0.52): 97.82% and 101.86%; % Growth ([5]; Log10 Conc. (nM) -1.12): 92.55% and 85.18%; Sensitivity in growth assays ([5]; LNCaP-CDK7-D97N vs parental): remaining sensitive; IC50 ([6]; 4 days, SRB): 5.5 nM; % Growth ([6]; Log10 Conc. (nM) 0.09, 4 days): 84.50% and 79.80% and 95.09% and 95.13%; % Growth ([6]; Log10 Conc. (nM) -0.52, 4 days): 99.55% and 100.47% and 99.34% and 100.40%; % Growth ([6]; Log10 Conc. (nM) -1.12, 4 days): 92.16% and 94.11% and 96.62% and 97.54%; Sensitivity in growth assays ([7]; 22Rv1-SamR): remained sensitive; Resistance (Fold), fold increase in IC50 of 22Rv1-SamR relative to 22Rv1 ([7]; 22Rv1-SamR vs 22Rv1): 2.0 fold; % Growth ([7]; Log10 Conc. (nM) 0.09): 83.75% and 87.25%; % Growth ([7]; Log10 Conc. (nM) 0.69): 68.41% and 67.61%; % Growth ([7]; Log10 Conc. (nM) 1.29): 30.25% and 41.41%; % Growth ([7]; Log10 Conc. (nM) 1.89): -7.69% and -2.73%; % Growth ([7]; Log10 Conc. (nM) 2.49): -11.43% and -7.53%; % Growth ([7]; Log10 Conc. (nM) 3.10): -11.82% and -8.43%; % Growth ([7]; Log10 Conc. (nM) 3.70): -15.22% and -10.53%; % Growth ([7]; Log10 Conc. (nM) -0.52): 93.15% and 99.90%; % Growth ([7]; Log10 Conc. (nM) -1.12): 93.43% and 95.60%
